SMILES strings stand for the structures. Bounds are passed on as bounds.

The target in the test is Glycogen synthase kinase-3 beta (Homo sapiens, UniProt P49841). Briefly: Inhibition of human GSK3beta using YRRAAVPPSPSLSRHSSPHQ(pS)EDEEE as substrate in presence of gamma-33P-ATP.
Sequence of Glycogen synthase kinase-3 beta (P49841 whole entry): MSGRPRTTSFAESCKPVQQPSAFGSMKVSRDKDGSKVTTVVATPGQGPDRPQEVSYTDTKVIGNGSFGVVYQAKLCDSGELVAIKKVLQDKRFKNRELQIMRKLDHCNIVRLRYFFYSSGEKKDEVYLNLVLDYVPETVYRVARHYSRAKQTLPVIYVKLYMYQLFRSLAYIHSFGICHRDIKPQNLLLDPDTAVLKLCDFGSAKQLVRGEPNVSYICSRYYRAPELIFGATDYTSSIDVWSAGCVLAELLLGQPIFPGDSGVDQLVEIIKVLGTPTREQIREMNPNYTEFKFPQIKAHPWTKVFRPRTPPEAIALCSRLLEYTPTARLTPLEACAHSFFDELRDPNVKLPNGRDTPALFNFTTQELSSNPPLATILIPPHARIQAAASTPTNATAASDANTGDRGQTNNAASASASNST
Take `O=C(/C=C/c1cnc2[nH]cc(-c3ccccc3)c2c1)N[C@@H](CO)Cc1ccccc1`: the IC50 turned out to be 752 nM.
The result for `O=C(/C=C/c1cnc2[nH]cc(-c3ccccc3)c2c1)NCCc1ccccn1` reads 19 nM; that for `O=C(/C=C/c1cnc2[nH]cc(-c3ccccc3)c2c1)NCCc1cccnc1`, 32 nM; that for `O=C(/C=C/c1cnc2[nH]cc(-c3ccccc3)c2c1)NCCc1c[nH]cn1`, 49 nM.
As for `O=C(CNC(=O)c1cnc2[nH]c(-c3ccccc3)cc2c1)NCCc1c[nH]c2ccccc12`, the IC50 is over 50000 nM.
For `O=C(CNC(=O)c1cnc2[nH]cc(C(=O)c3ccccc3)c2c1)NCCc1c[nH]c2ccccc12`, the IC50 turned out to be 15700 nM.
For the molecule `O=C(CNC(=O)c1ccc2[nH]cc(-c3ccccc3)c2c1)NCCc1c[nH]c2ccccc12`, the IC50 was over 50000 nM.
With `O=C(CNC(=O)c1cnc2[nH]cc(-c3ccccc3)c2c1)NCCc1c[nH]cn1`, the IC50 was found to be 2610 nM.
On to `O=C(CNC(=O)c1cnc2[nH]ccc2c1)NCCc1c[nH]c2ccccc12`, for which the IC50 was over 50000 nM.
For `C[C@@H](NC(=O)/C=C/c1cnc2[nH]cc(-c3ccccc3)c2c1)[C@@H](O)c1ccccc1`, the IC50 stood at 180 nM.

These data come from ChEMBL document CHEMBL3867471, “Identification of lead small molecule inhibitors of glycogen synthase kinase-3 beta using a fragment-linking strategy” (Bioorg Med Chem Lett, 2016).
